Laboratory results: patent US12053506B2, “Romo1-derived antimicrobial peptides and variants thereof” (priority 2019, dated 2024)
No end group written: not given here.

Assays:
Format in all cases: cell-based
[1] = tested on: CRPA; test: MBC, evaluation of antibacterial activities of KU-5878 variants; details: Tables 11-15, no unit printed
[2] = tested on: Pseudomonas aeruginosa and Staphylococcus aureus; test: MBC assay, antibacterial activity of Romo1-derived peptides compared in words; details: Table 1 peptides
Description: Romo1 protein comprises two α-helices. The present inventors synthesized the α-helix 2 region having both hydrophilicity and hydrophobicity, and evaluated the antibacterial activity thereof using minimum bactericidal concentration (MBC) assay. The α-helix 2 region was named KU-5279 (the 52-79 amino acid region of Romo1 protein). Then, in order to identify peptides that are beneficial for human application and have excellent antibacterial activity, the present inventors synthesized several peptides comprising a sequence of contiguous amino acids starting at any amino acid selected from the 52-79 amino acid region of Romo1 protein, and comparatively evaluated the antibacterial activities of the peptides by minimum bactericidal concentration assay (See Table 1 below for information on each peptide). Evaluation of the antibacterial activity of each peptide by minimum bactericidal concentration assay was specifically performed as follows. First, each of Pseudomonas aeruginosa (ATCC 27853) and Staphylococcus aureus (ATCC 29213) was cultured in 3% (w/v) TSB (Tryptic Soy Broth) liquid medium at 37° C. and 200 rpm for 4 hours, and then further cultured under the same conditions for 3 hours to a concentration of 5×10^6 CFU/ml. […]

[3] = tested on: Bacillus subtilis (ATCC 6633); test: Minimum bactericidal concentration (MBC) assay
Method: (§1) The minimum bactericidal concentration assay was the same as the method used in Example 1.
(§2) Specifically, each type of bacteria was cultured in 3% (w/v) TSB (Tryptic Soy Broth) liquid medium at 37° C. and 200 rpm for 4 hours, and then further cultured under the same conditions for 3 hours to a concentration of 5×10^6 CFU/ml. Strain solutions were prepared by diluting each of the […] of 2×10^5 CFU/ml.
(§3) Then, the KU-5878 peptide at varying concentrations (0 μg/ml to 300 μg/ml) was dispensed into each well of a 96-well microplate, and 100 μl (1×10^5 CFU/ml) of each of the prepared strain solutions was added thereto, mixed therewith, and allowed to react with the peptide in an incubator at 37° C. for 1 hour.
(§4) In addition, 10 μl of each reaction solution of the peptide and the strain was plated on the TS agar plate at a constant size, and incubated in an incubator at 37° C. for 18 hours, and then colony formation on the plate was checked. The minimum bactericidal concentration was defined as the minimum concentration of the peptide at which no colony was formed, and the experimental results are shown in Table 2 below.

[4] = tested on: Streptomyces sindenensis (ATCC 12392); test: Minimum bactericidal concentration (MBC) assay
Method: as §1, §2, §3, §4

[5] = tested on: Enterococcus faecium (ATCC 19434); test: Minimum bactericidal concentration (MBC) assay
Method: as §1, §2, §3, §4

[6] = tested on: Klebsiella pneumoniae (ATCC 13883); test: Minimum bactericidal concentration (MBC) assay
Method: as §1, §2, §3, §4

[7] = tested on: Escherichia coli (ATCC 25922); test: Minimum bactericidal concentration (MBC) assay
Method: as §1, §2, §3, §4

[8] = tested on: Enterobacter aerogenes (ATCC 13048); test: Minimum bactericidal concentration (MBC) assay
Method: as §1, §2, §3, §4

[9] = tested on: Enterococcus faecalis (ATCC 19433); test: Minimum bactericidal concentration (MBC) assay
Method: as §1, §2, §3, §4

[10] = tested on: Acinetobacter baumannii (ATCC 19606); test: Minimum bactericidal concentration (MBC) assay
Method: as §1, §2, §3, §4

[11] = tested on: Human vascular endothelial cells (HUVECs); test: Toxicity to human vascular endothelial cells (MTT); details: 0 μg/ml to 300 μg/ml; FIG. 5
Method: PBS was used as a control.
The HUMEC medium was replaced with fresh medium, and KU-5878, melittin or magainin 2 were dispensed at various concentrations (0 μg/ml to 300 μg/ml). Then, each well was treated with 100 μl of MTT reagent and incubated at 37° C. for 2 hours. Then, the medium and the peptide were carefully removed so as not to separate the cells, and 100 μl of DMSO (dimethyl sulfoxide) was added to each well, and the absorbance at a wavelength of 570 nm was measured using a spectrophotometer. Relative cell viability was calculated as a percentage of the viability of untreated control cells.

[12] = tested on: Staphylococcus aureus (ATCC 29213)
Summary of the method: (§5)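 Bacteria grown in 3% TSB at 37° C, diluted in 10 mM sodium phosphate/1% TSB to 1×10^5 CFU/ml in wells, exposed to peptides (0–300 μg/ml) for 1 h at 37° C. Mixtures plated on TS agar for 18 h at 37° C; MBC is the lowest concentration giving no colonies.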

[13] = tested on: Pseudomonas aeruginosa (ATCC 27853)
Summary of the method: as §5

KTMMQSGGTFGTFMAIGMGIR [KU-5878]
MBC CRPA [1]: 110 µg/mL | antibacterial activity by MBC assay, in words [2]: three times better antibacterial activity than KU-5279 | MBC value (μg/ml), Bacillus subtilis [3]: 90 µg/mL | MBC value (μg/ml), Streptomyces sindenensis [4]: 95 µg/mL | MBC value (μg/ml), Enterococcus faecium [5]: 85 µg/mL | MBC value (μg/ml), Klebsiella pneumoniae [6]: 100 µg/mL | MBC value (μg/ml), Escherichia coli [7]: 85 µg/mL | MBC value (μg/ml), Enterobacter aerogenes [8]: 90 µg/mL | MBC value (μg/ml), Enterococcus faecalis [9]: 85 µg/mL | MBC value (μg/ml), Acinetobacter baumannii [10]: 100 µg/mL | toxicity to the HUVECs (relative cell viability, MTT) [11]: very low toxicity | MBC (μg/ml) value against Staphylococcus aureus ([12]; ATCC 29213): 100 µg/mL | MBC value (μg/ml) against Staphylococcus aureus ([12]; ATCC 29213, 1 h): 100 µg/mL | MBC Staphylococcus aureus ([12]; Tables 11-15, no unit printed): 100 µg/mL | MBC (μg/ml) value against Pseudomonas aeruginosa ([13]; ATCC 27853): 100 µg/mL | MBC value (μg/ml) against Pseudomonas aeruginosa ([13]; ATCC 27853, 1 h): 100 µg/mL | MBC Pseudomonas aeruginosa ([13]; Tables 11-15, no unit printed): 100 µg/mL
